Assays:
Experiment in all cases: Test E pre-/postemergence herbicide test
large crabgrass = type: in vivo, Digitaria sanguinalis
How it was run: (§1)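 Pre-/postemergence spray, solvent + surfactant vehicle; post timing 1- to 4-leaf stage (2–18 cm). Greenhouse 12–14 d. Visual score 0 (no effect) to 100 (complete control) relative to controls.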

johnsongrass = type: in vivo, Sorghum halepense
How it was run: as §1

pitted morningglory = type: in vivo, Ipomoea lacunosa
How it was run: as §1

common ragweed = type: in vivo, Ambrosia elatior
How it was run: as §1

mustard = type: in vivo, Brassica nigra
How it was run: as §1

barnyardgrass = type: in vivo, Echinochloa crus-galli
How it was run: as §1

southern sandbur = type: in vivo, Cenchrus echinatus
How it was run: as §1

prickly sida = type: in vivo, Sida spinosa
How it was run: as §1

common chickweed = type: in vivo, Stellaria media
How it was run: as §1

tropical spiderwort = type: in vivo, Commelina benghalensis
How it was run: as §1

annual bluegrass = type: in vivo, Poa annua
How it was run: as §1

[1] = Postemergence, 500 g ai/ha, scale 0 to 100
[2] = Postemergence, 250 g ai/ha, scale 0 to 100
[3] = Preemergence, 62 g ai/ha, scale 0 to 100
[4] = Preemergence, 125 g ai/ha, scale 0 to 100
[5] = Preemergence, 250 g ai/ha, scale 0 (no effect) to 100 (complete control)
[6] = Preemergence, 500 g ai/ha, scale 0 (no effect) to 100 (complete control)
[7] = postemergence, 125 g ai/ha, scale 0 to 100
[8] = postemergence, 62 g ai/ha, scale 0 to 100

**Q.** Which “Plant response rating, Crabgrass, Large” value (large crabgrass; [1]) does the source give for `CCNC(=O)c1ccc(F)c(NC(=O)c2cn(C(C)(C)C)nc2CC)c1` [Compound 193] here?
**A.** The value was 100.

**Q.** And the “Plant response rating, Crabgrass, Large” value (large crabgrass; [2])?
**A.** The value was 100.

**Q.** What about the “Plant response rating, Crabgrass, Large” value (large crabgrass; [3]) of the same compound?
**A.** The value was 60.

**Q.** And the “Plant response rating, Crabgrass, Large” value (large crabgrass; [4])?
**A.** The value was 80.

**Q.** And the “Plant response rating, Crabgrass, Large” value (large crabgrass; [5])?
**A.** The value was 100.

**Q.** And the “Plant response rating, Crabgrass, Large” value (large crabgrass; [6])?
**A.** The value was 100.

**Q.** What about the “Plant response rating, Crabgrass, Large” value (large crabgrass; [7]) of the same compound?
**A.** Its value is 80.

**Q.** And the “Plant response rating, Crabgrass, Large” value (large crabgrass; [8])?
**A.** Its value is 10.

**Q.** What about the “Plant response rating, Johnsongrass” value (johnsongrass; [1]) of the same compound?
**A.** The value was 80.

**Q.** What about the “Plant response rating, Johnsongrass” value (johnsongrass; [2]) of the same compound?
**A.** The value was 70.

**Q.** And the “Plant response rating, Johnsongrass” value (johnsongrass; [3])?
**A.** Its value is 20.

**Q.** And the “Plant response rating, Johnsongrass” value (johnsongrass; [4])?
**A.** The value was 75.

**Q.** And the “Plant response rating, Johnsongrass” value (johnsongrass; [5])?
**A.** The value was 85.

**Q.** And the “Plant response rating, Johnsongrass” value (johnsongrass; [6])?
**A.** Its value is 95.

**Q.** What about the “Plant response rating, Johnsongrass” value (johnsongrass; [7]) of the same compound?
**A.** The value was 70.

**Q.** And the “Plant response rating, Johnsongrass” value (johnsongrass; [8])?
**A.** The value was 40.

**Q.** And the “Plant response rating, Morningglory” value (pitted morningglory; [1])?
**A.** Its value is 75.

**Q.** And the “Plant response rating, Morningglory” value (pitted morningglory; [2])?
**A.** Its value is 60.

**Q.** What about the “Plant response rating, Morningglory” value (pitted morningglory; [3]) of the same compound?
**A.** The value was 0.

**Q.** And the “Plant response rating, Morningglory” value (pitted morningglory; [4])?
**A.** Its value is 20.

**Q.** What about the “Plant response rating, Morningglory” value (pitted morningglory; [5]) of the same compound?
**A.** Its value is 50.

**Q.** And the “Plant response rating, Morningglory” value (pitted morningglory; [6])?
**A.** The value was 70.

**Q.** And the “Plant response rating, Morningglory” value (pitted morningglory; [7])?
**A.** The value was 60.

**Q.** What about the “Plant response rating, Morningglory” value (pitted morningglory; [8]) of the same compound?
**A.** Its value is 30.

**Q.** What about the “Plant response rating, Ragweed” value (common ragweed; [1]) of the same compound?
**A.** Its value is 75.

**Q.** What about the “Plant response rating, Ragweed” value (common ragweed; [2]) of the same compound?
**A.** Its value is 70.

**Q.** What about the “Plant response rating, Ragweed” value (common ragweed; [3]) of the same compound?
**A.** Its value is 50.

**Q.** What about the “Plant response rating, Ragweed” value (common ragweed; [4]) of the same compound?
**A.** The value was 50.

**Q.** What about the “Plant response rating, Ragweed” value (common ragweed; [5]) of the same compound?
**A.** The value was 80.

**Q.** What about the “Plant response rating, Ragweed” value (common ragweed; [6]) of the same compound?
**A.** The value was 95.

**Q.** And the “Plant response rating, Ragweed” value (common ragweed; [7])?
**A.** Its value is 30.

**Q.** And the “Plant response rating, Ragweed” value (common ragweed; [8])?
**A.** The value was 10.

**Q.** What about the “Plant response rating, Black Mustard” value (mustard; [1]) of the same compound?
**A.** Its value is 100.

**Q.** What about the “Plant response rating, Black Mustard” value (mustard; [2]) of the same compound?
**A.** The value was 95.

**Q.** What about the “Plant response rating, Black Mustard” value (mustard; [3]) of the same compound?
**A.** The value was 80.

**Q.** What about the “Plant response rating, Black Mustard” value (mustard; [4]) of the same compound?
**A.** The value was 100.

**Q.** What about the “Plant response rating, Black Mustard” value (mustard; [5]) of the same compound?
**A.** Its value is 100.

**Q.** And the “Plant response rating, Black Mustard” value (mustard; [6])?
**A.** Its value is 100.

**Q.** What about the “Plant response rating, Black Mustard” value (mustard; [7]) of the same compound?
**A.** The value was 95.

**Q.** And the “Plant response rating, Black Mustard” value (mustard; [8])?
**A.** Its value is 60.

**Q.** And the “Plant response rating, Barnyardgrass” value (barnyardgrass; [1])?
**A.** The value was 90.

**Q.** And the “Plant response rating, Barnyardgrass” value (barnyardgrass; [2])?
**A.** Its value is 80.

**Q.** What about the “Plant response rating, Barnyardgrass” value (barnyardgrass; [3]) of the same compound?
**A.** Its value is 20.

**Q.** And the “Plant response rating, Barnyardgrass” value (barnyardgrass; [4])?
**A.** Its value is 75.

**Q.** And the “Plant response rating, Barnyardgrass” value (barnyardgrass; [5])?
**A.** The value was 85.

**Q.** And the “Plant response rating, Barnyardgrass” value (barnyardgrass; [6])?
**A.** Its value is 95.

**Q.** And the “Plant response rating, Barnyardgrass” value (barnyardgrass; [7])?
**A.** The value was 75.

**Q.** And the “Plant response rating, Barnyardgrass” value (barnyardgrass; [8])?
**A.** Its value is 10.

**Q.** What about the “Plant response rating, Sandbur” value (southern sandbur; [1]) of the same compound?
**A.** The value was 20.

**Q.** What about the “Plant response rating, Sandbur” value (southern sandbur; [2]) of the same compound?
**A.** The value was 10.

**Q.** And the “Plant response rating, Sandbur” value (southern sandbur; [3])?
**A.** The value was 0.

**Q.** What about the “Plant response rating, Sandbur” value (southern sandbur; [4]) of the same compound?
**A.** Its value is 10.

**Q.** What about the “Plant response rating, Sandbur” value (southern sandbur; [5]) of the same compound?
**A.** The value was 20.

**Q.** What about the “Plant response rating, Sandbur” value (southern sandbur; [6]) of the same compound?
**A.** The value was 60.

**Q.** And the “Plant response rating, Sandbur” value (southern sandbur; [7])?
**A.** The value was 0.

**Q.** And the “Plant response rating, Sandbur” value (southern sandbur; [8])?
**A.** Its value is 0.

**Q.** And the “Plant response rating, Prickly Sida” value (prickly sida; [1])?
**A.** The value was 95.

**Q.** What about the “Plant response rating, Prickly Sida” value (prickly sida; [2]) of the same compound?
**A.** The value was 75.

**Q.** And the “Plant response rating, Prickly Sida” value (prickly sida; [3])?
**A.** The value was 20.

**Q.** And the “Plant response rating, Prickly Sida” value (prickly sida; [4])?
**A.** The value was 70.

**Q.** What about the “Plant response rating, Prickly Sida” value (prickly sida; [5]) of the same compound?
**A.** The value was 70.

**Q.** What about the “Plant response rating, Prickly Sida” value (prickly sida; [6]) of the same compound?
**A.** Its value is 95.

**Q.** And the “Plant response rating, Prickly Sida” value (prickly sida; [7])?
**A.** Its value is 60.

**Q.** What about the “Plant response rating, Prickly Sida” value (prickly sida; [8]) of the same compound?
**A.** The value was 60.

**Q.** And the “Plant response rating, Chickweed” value (common chickweed; [1])?
**A.** The value was 100.

**Q.** And the “Plant response rating, Chickweed” value (common chickweed; [2])?
**A.** The value was 95.

**Q.** And the “Plant response rating, Chickweed” value (common chickweed; [3])?
**A.** The value was 80.

**Q.** What about the “Plant response rating, Chickweed” value (common chickweed; [4]) of the same compound?
**A.** The value was 100.

**Q.** And the “Plant response rating, Chickweed” value (common chickweed; [5])?
**A.** The value was 100.

**Q.** And the “Plant response rating, Chickweed” value (common chickweed; [6])?
**A.** The value was 100.

**Q.** And the “Plant response rating, Chickweed” value (common chickweed; [8])?
**A.** The value was 40.

**Q.** And the “Plant response rating, Spiderwort” value (tropical spiderwort; [1])?
**A.** Its value is 70.

**Q.** And the “Plant response rating, Spiderwort” value (tropical spiderwort; [2])?
**A.** Its value is 50.

**Q.** What about the “Plant response rating, Spiderwort” value (tropical spiderwort; [4]) of the same compound?
**A.** Its value is 80.

**Q.** What about the “Plant response rating, Spiderwort” value (tropical spiderwort; [5]) of the same compound?
**A.** The value was 90.

**Q.** What about the “Plant response rating, Spiderwort” value (tropical spiderwort; [6]) of the same compound?
**A.** Its value is 95.

**Q.** What about the “Plant response rating, Spiderwort” value (tropical spiderwort; [7]) of the same compound?
**A.** The value was 20.

**Q.** What about the “Plant response rating, Bluegrass” value (annual bluegrass; [1]) of the same compound?
**A.** Its value is 85.

**Q.** And the “Plant response rating, Bluegrass” value (annual bluegrass; [2])?
**A.** The value was 70.

**Q.** And the “Plant response rating, Bluegrass” value (annual bluegrass; [3])?
**A.** The value was 80.

**Q.** And the “Plant response rating, Bluegrass” value (annual bluegrass; [4])?
**A.** The value was 100.

**Q.** And the “Plant response rating, Bluegrass” value (annual bluegrass; [5])?
**A.** Its value is 100.

**Q.** And the “Plant response rating, Bluegrass” value (annual bluegrass; [6])?
**A.** The value was 100.

**Q.** And the “Plant response rating, Bluegrass” value (annual bluegrass; [7])?
**A.** The value was 50.

**Q.** What about the “Plant response rating, Bluegrass” value (annual bluegrass; [8]) of the same compound?
**A.** The value was 20.
